Where two headings read alike, the source gives them in different places.
Tests used:
[1] = tested on: HIF-1α in HeLa and U2OS cells, HIF-1α and HIF-2α in Hep3b cells; assay: Immunoblotting of HIF-α stabilization, dose titration; format: cell-based, human; conditions: 6 hours treatment, all of the cells tested
Protocol: The cellular HIF-α stabilization was further studied using immunoblotting. […]. page 15: […]
freshly every day as a 400 mM stock solution in 20 mM HCl, this was then diluted to 1 mM in deionized water. L-ascorbic acid (50 mM) and 2OG stock solutions (10 mM) were prepared freshly every day in deionized water as for the PHD2 assays14 . The synthetic consensus ankyrin […]
peptide ([…]-CONH2) was synthesized by GL Biochem
(Shanghai) Ltd and dissolved to 1 mM in deionized water.
20 μl FIH (100 nM) in the assay buffer (50 mM Tris.Cl pH 7.8, 50 mM NaCl) was pre-incubated for 15 minutes in the presence of the inhibitors and the enzyme reaction initiated by addition of 20 μl substrate (200 μM L-ascorbic acid, 20 μM Fe2+, 10 μM synthetic ankyrin peptide 14 and 20 μM 2OG). After 15 minutes the reaction was quenched by addition of 4 μl 10% formic acid and the reaction transferred to a RapidFire RF360 high throughput sampling robot. Samples were aspirated under vacuum onto a C4 Solid Phase Extraction (SPE) cartridge.
After an aqueous washing step (0.1% formic acid in water), to remove non-volatile buffer components from the C4 SPE, peptide was eluted in an organic washing step (85% acetonitrile in water, 0.1% formic acid) and injected into an Agilent 6530 Q-TOF mass spectrometer. Ion chromatogram data was extracted for the non-hydroxylated peptide substrate and the hydroxylated peptide product; the peak area data for extracted ion chromatograms were integrated using RapidFire Integrator software. % conversion of substrate to product was calculated in Microsoft excel and IC50 curves generated using Graphpad Prism.
Cell Culture and Immunoblotting […]
Cells were harvested in urea/SDS buffer (6.7 M urea, 10 mM Tris-Cl pH 6.8, 10% glycerol, and1% SDS) supplemented with 1mM dithiothreitol following a phosphate-buffered saline (PBS) rinse. Cell extracts were analyzed with SDS-PAGE, electroblotted to polyvinylidene difluoride (PVDF) membrane (Millipore) and probed with the corresponding primary antibody for 1 hour at room temperature or overnight at 4 °C. […]

PHD3 = PHD3 (Homo sapiens, UniProt Q9H6Z9); assay: MALDI-TOF MS PHD hydroxylation assay; format: biochemical
Sequence of PHD3 (Q9H6Z9 whole entry): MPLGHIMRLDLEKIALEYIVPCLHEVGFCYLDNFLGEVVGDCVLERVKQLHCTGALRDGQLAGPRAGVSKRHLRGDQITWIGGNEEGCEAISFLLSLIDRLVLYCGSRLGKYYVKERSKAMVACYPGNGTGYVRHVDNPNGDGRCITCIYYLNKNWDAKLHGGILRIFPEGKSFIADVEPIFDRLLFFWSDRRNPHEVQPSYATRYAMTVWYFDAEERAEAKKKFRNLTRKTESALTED
Protocol: (§1) Protocols for in vitro PHD1–3 MALDI-TOF MS hydroxylation assays[30] and for the AlphaScreen histone demethylase assays[44] were as reported.
(§2) Although sharing homologous C-terminal catalytic domains, the N-terminal regions of PHD1–3 vary. […] In vitro inhibition assays of the clinical trial PHD inhibitors (and some of their structurally related analogue) against 1 μM recombinant human PHD1–3 were performed.
(§3) Fig. S11. In vitro PHD isoform selectivity profiling of PHD inhibitors. Inhibition of PHD inhibitors against human PHD125 -3 as assayed by MALDI-TOF MS (the protocol is described in Chan et al. ). Eight concentrations were used to obtained dose-response curve for each compound. Data points presented in the graph are mean with standard deviation, n=3. IC50 values (listed in Supplemental Table S3) were calculated using GraphPad Prism® 5.04.
(§4) (1 picture or pasted object on this page, not shown here)

PHD1 = PHD1 (Homo sapiens, UniProt Q96KS0); assay: MALDI-TOF MS PHD hydroxylation assay; format: biochemical
Sequence of PHD1 (Q96KS0 whole entry): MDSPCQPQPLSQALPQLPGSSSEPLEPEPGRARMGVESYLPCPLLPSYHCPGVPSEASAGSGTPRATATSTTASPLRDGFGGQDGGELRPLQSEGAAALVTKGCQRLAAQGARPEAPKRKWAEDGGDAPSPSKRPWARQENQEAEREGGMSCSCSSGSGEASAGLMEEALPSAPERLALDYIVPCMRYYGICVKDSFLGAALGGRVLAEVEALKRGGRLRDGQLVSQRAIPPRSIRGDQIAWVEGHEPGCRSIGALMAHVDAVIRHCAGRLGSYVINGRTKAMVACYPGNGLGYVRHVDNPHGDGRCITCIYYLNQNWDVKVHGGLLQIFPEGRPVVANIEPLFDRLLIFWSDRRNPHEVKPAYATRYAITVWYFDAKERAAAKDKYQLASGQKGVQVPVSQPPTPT
Protocol: as §1, §2, §3, §4

[2] = tested on: HIF-1α Pro402 (NODD), Pro564 (CODD) and Asn803 hydroxylation in RCC4 cells; assay: Immunoblotting of HIF-1α hydroxylation in VHL-deficient RCC4 cells; format: cell-based, human; conditions: 6 hours; for comparison of inhibition of NODD and CODD hydroxylation: RCC4 cells, 10, 50 and 100 μM; for inhibition of HIF-1α NODD and CODD hydroxylation: titration
Protocol: To test whether the cellular HIF-α induction occurs via inhibition of HIF-α hydroxylation, we utilized a Von Hippel–Lindau (VHL)-deficient renal cell carcinoma cell line RCC4, in which HIF-α is constitutively stabilized in normoxia due to loss of functional VHL.[77] We used antibodies specific for hydroxylation at the N-terminal and C-terminal oxygen-dependent degradation domains, Pro402 (NODD) and Pro564 (CODD) at HIF-1α.[78] HIF-1α hydroxylation status was analyzed after 6 hours treatment. […]. page 15: […]
Cell Culture and Immunoblotting
HeLa and RCC4 cells were cultured in Dulbecco’s Modified Eagle’s Medium (DMEM; Sigma Aldrich D6546-500ML) supplemented with 10% fetal bovine serum (Sigma Aldrich F7524-500ML), 4 mM L-glutamine (Sigma Aldrich G7513- 100ML), 50 U/mL penicillin, and 50 μg/mL streptomycin (Sigma Aldrich P0781-100ML). Cells were seeded to reach 90-100% confluency prior to compound treatment. Cells were exposed to the inhibitor at a final concentration of 1% DMSO for 5-6 hours. For Fe(II) titration in the presence of inhibitors, ferric ammonium citrate was added to the cells for further 16 hours after 6 hours of incubation […]
Cells were harvested in urea/SDS buffer (6.7 M urea, 10 mM Tris-Cl pH 6.8, 10% glycerol, and1% SDS) supplemented with 1mM dithiothreitol following a phosphate-buffered saline (PBS) rinse. Cell extracts were analyzed with SDS-PAGE, electroblotted to polyvinylidene difluoride (PVDF) membrane (Millipore) and probed with the corresponding primary antibody for 1 hour at room temperature or overnight at 4 °C. The secondary antibody specific to primary antibody species conjugated with HRP were applied at room temperature for 1 hour.
The antibodies used for immonoblotting were as follows: pan-anti-HIF-1α (clone 54, BD Transduction Laboratories™), anti-HIF-1α Hyp402 (catalogue number 07-1585, Merck Millipore), anti-HIF-1α Hyp564 (D43B5, Cell Signaling), anti-HIF-1α HyN803 (a generous gift from Lee et al.15), PHD216, PHD316, and HRP-conjugated anti-β-actin (clone AC15, Abcam). Details of antibodies used are given in Tian et al.17 Detection of signal was achieved using SuperSignal™ West Dura Extended Duration Substrate kTM it (Thermo Scientific 34075, unless otherwise stated) either with film or ChemiDoc MP (BIO-RAD) imaging system. TM Quantification of the immunobloting signal was performed with Image Lab software from […]

[3] = tested on: hypoxia response element (HRE) firefly luciferase reporter in HT1080 cells; assay: HRE luciferase reporter assay; format: cell-based; conditions: for EC50: Homo sapiens
Protocol: HT1080 cells were stably transfected with a construct containing a firefly luciferase gene under the control of 5 tandem copies of the sequence: […] (which contains the hypoxia response element (HRE) 3′ to the mouse erythropoietin gene) linked to a ‘minimal’ SV40 promoter.
HT1080P8 cells (25 000–30 000) were seeded into 96-well plates (100 μL per well) overnight to enable cell adhesion. […] The medium was removed and cells washed with PBS. Luciferase signal was measured using Luciferase Assay System kit from Promega (E1500) following the manufacturer's protocol with a FLUOstar Omega Microplate Reader (BMG Labtech).

[4] = 1μM isolated recombinant human PHD3, MALDI-TOF MS, read-out: IC50 PHD3
[5] = 1μM isolated recombinant human PHD1, MALDI-TOF MS, read-out: IC50 PHD1
[6] = HT-1080, 16 h, read-out: EC50 HRE luciferase reporter

| Compound | concentration at which HIF-1α levels (and HIF-2α levels in Hep3b cells) were saturated [1] [µM] | IC50 (PHD3; [4]) [nM] | IC50 (PHD1; [5]) [nM] | comparison of inhibition of NODD and CODD hydroxylation [2] | inhibition of NODD hydroxylation ([2]; RCC4 cells, 50 μM) | inhibition of HIF-1α NODD and CODD hydroxylation ([2]; RCC4 cells) | inhibition of HIF-1α Asn803 hydroxylation ([2]; RCC4 cells, up to 100 μM) | concentrations at which the luciferase signals were reduced ([3]; HT1080 cells, 16 hours) [µM] | EC50 [3, 6] [nM] | further results |
| --- | --- | --- | --- | --- | --- | --- | --- | --- | --- | --- |
| Cc1nc(C(=O)NCC(=O)O)c(O)c2ccc(Oc3ccccc3)cc12 [FG-4592] | < 100 | 1320 | 1400 | greatest inhibition of CODD hydroxylation among the inhibitors | significantly inhibited | inhibited both NODD and CODD hydroxylation in a dose dependent manner | no sign of HIF-1α Asn803 hydroxylation inhibition | – | – | inhibition of CODD hydroxylation ([2]; RCC4 cells, 50 μM): clear inhibition; EC50 ([3]; HT-1080, 6 h, read-out: EC50 HRE luciferase reporter, HT1080 cells, 6 hours treatment): 3000 nM; EC50 ([3]; HT-1080, 16 h, read-out: EC50 HRE luciferase reporter, HT1080 cells, 16 hours treatment): 7000 nM; EC50 ([3]; HT-1080, 24 h, read-out: EC50 HRE luciferase reporter, HT1080 cells, 24 hours treatment): 7000 nM |
| O=C(O)CNC(=O)C1C(=O)N(C2CCCCC2)C(=O)N(C2CCCCC2)C1=O [GSK1278863] | < 100 | – | – | better inhibits NODD than CODD hydroxylation | – | inhibited both NODD and CODD hydroxylation in a dose dependent manner | no sign of HIF-1α Asn803 hydroxylation inhibition | > 33 | 800 | IC50 (PHD3): 610 nM; IC50 (PHD1): 1500 nM; Emax in HRE luciferase reporter assay ([3]; HT1080 cells, 16 hours): lowest observed Emax |
| CC(C)(C)OC(=O)c1ccc(-n2[nH]cc(-n3ccnn3)c2=O)nc1 [IOX4] | – | 690 | 550 | – | – | inhibited both NODD and CODD hydroxylation in a dose dependent manner | – | > 33 | 800 | – |
| O=c1c(-n2ccnn2)c[nH]n1-c1cc(N2CCOCC2)ncn1 [Molidustat] | < 100 | 720 | 1450 | weaker inhibition of both hydroxylation sites compared to FG-4592 and GSK1278863 at 10 μM | – | inhibited both NODD and CODD hydroxylation in a dose dependent manner | no sign of HIF-1α Asn803 hydroxylation inhibition | > 33 | – | EC50 ([3]; HT-1080, HT1080 cells, 16 hours treatment, read-out: EC50 HRE luciferase reporter): 2100 nM |
| O=C(O)CNC(=O)c1ncc(-c2cccc(Cl)c2)cc1O [Vadadustat] | – | 260 | 840 | – | no sign of PHD inhibition | – | – | – | 41000 | inhibition of NODD hydroxylation ([2]; RCC4 cells, 100 μM): only slight inhibition; inhibition of CODD hydroxylation ([2]; RCC4 cells, up to 100 μM): no clear inhibition; inhibition of hydroxylation of Asn803 ([2]; RCC4 cells, up to 200 μM): not observed; EC50 ([3]; HT-1080, 6 h, read-out: EC50 HRE luciferase reporter): 15700 nM; EC50 ([3]; HT-1080, 24 h, read-out: EC50 HRE luciferase reporter): 37000 nM |

Source: article PMC5802278, “Molecular and cellular mechanisms of HIF prolyl hydroxylase inhibitors in clinical trials” (Chemical Science, 2017)
